Experiments:
Assay type in all cases: physicochemical
[1] = Long-term stability in feeds at room temperature (25° C.±2° C., RH 60%±10%; HPLC)
Text: Feeds: ZUSF's premixed feed (A mixture of crushed Feed A and crushed Feed B at a weight ratio of 2:1, wherein Feed A was a 5.33% multi-premixed feed for piglets from ZUSF's Hao-Ru-Zhen-Jing, and B was a 2.67% multi-premixed feed for piglets from ZUSF's Hao-Ru-Zhen-Jing); creep feed for piglets from CP FEED; INSIGHTER's feed for broiler; 4% premixed feed from GUANGDONG CO-POWER.
Preparation of a sample of 1% premix of Ingredient: 1 g of an ingredient was respectively weighed out and evenly mixed with 99 g of corncob meal in a mixer to give a sample of 1% premix of an ingredient.
Preparation of a sample of 500 ppm feed of an ingredient: The sample of 1% premix of an ingredient was diluted step by step using the ZUSF's remixed feed to 5000 ppm and 500 ppm to give the sample of 500 ppm feed of an ingredient for later testing.
Preparation of a sample of 100 ppm feed of an ingredient: sample of 1% premix of an ingredient was diluted step by step using the creep feed for piglets from CP FEED to 1000 ppm and then 100 ppm to give the sample of 100 ppm feed of an ingredient for later testing.
Preparation of a sample of 100 ppm feed of an ingredient: The sample of 1% premix of an ingredient was diluted step by step using the INSIGHTER's feed for broiler to 1000 ppm and 100 ppm to give the sample of 100 ppm feed of an ingredient for later testing.
Preparation of a sample of 2000 ppm feed of an ingredient: The sample of 1% premix of an ingredient was diluted step by step using the 4% premixed feed from GUANGDONG CO-POWER to 5000 ppm and 2000 ppm to give the sample of 2000 ppm feed of an ingredient for later testing.
Method: Three replications of each feed sample were tested at the condition of 25° C.±2° C. and RH 60%±10%, wherein the replications of each feed sample were sampled in parallel for HPLC analysis on day 5, day 10, day 15, day 30, day 60, and day 90.
25.0 mg of an ingredient was accurately weighed out and dissolved in an appropriate amount of methanol or n-hexane by ultrasonication. The solution was then transferred to a volumetric flask and diluted to 50 mL to give a 500 ppm (by wt.) stock solution. The samples from the stock solution were diluted with methanol or n-hexane respectively to a concentration of 10 ppm, 25 ppm, 50 ppm, 100 ppm, and 250 ppm of work solution, and then the working solutions were filtered by 0.22 μm organic membranes. Between the concentration of a sample and the response value of HPLC peak area thereof, the linearity was adjusted and detected to give a standard curve.
5.0000 g of the samples sampled at different time intervals were respectively accurately weighed out, and dissolved in 25 mL of methanol or n-hexane by ultrasonication for 10 minutes. The resulting solutions were filtered by organic membranes and then analyzed by HPLC.
• Equipment: Waters e2695 with PDA detector. • Mobile phase: 0.02% phosphoric acid:methanol=5:95 (v:v). • Column: Symmetry Cis column (Waters; 250 mm×4.6 mm, 5 μm). • Wavelength: 235 nm. • Temperature of the Column: 25° C. • Injection volume: 10 μL. • Flow rate: 1 mL/min. Normal Phase Chromatography: • Equipment: Shimadzu LC-14C/SPD-15C. • Column: SuperSil NH2 column ([…]; 250 mm×4.6 mm). • Mobile phase: n-hexane:isopropanol=60:40 (v:v). • Wavelength: 235 nm. • Temperature of the Column: 25° C. • Injection volume: 20 μL. • Flow rate: 1 mL/min. 3: Results

[2] = Thermal stability testing at 60° C. of ingredient and 1% premix (HPLC)
Method: (§1) Preparation of a sample of 1% premix of an ingredient: 1 g of an ingredient was respectively weighed out and evenly mixed with 99 g of corncob meal in a mixer to give a sample of 1% premix of an ingredient for testing.
Thermal stability testing at 60° C.: The samples of an ingredient and 1% premix thereof were respectively spread in petri dishes to form thin layers of <5 mm, and kept at 60° C. Two replications for a sample were taken in parallel on day 5 and day 10 for HPLC analysis.
(§2) 25.0 mg of an ingredient was accurately weighed out and dissolved in an appropriate amount of methanol by ultrasonication. The solution was then transferred to a volumetric flask and diluted to 25 mL with methanol to give a stock solution. The samples from the stock solution were diluted with methanol respectively to a concentration of 100 ppm, 500 ppm, and 1000 ppm of work solution, and then the working solutions were filtered by 0.22 μm organic membranes. Between the concentration of a sample and the response value of HPLC peak area thereof, the linearity was adjusted and detected to give a standard curve.
(§3) 2.3: Preparation of Sample Solution 25.0 mg of an ingredient and 2.0000 g of a sample of 1% premix thereof were respectively accurately weighed out, and dissolved in 25 mL of methanol by ultrasonication for 10 minutes. The resulting solutions were filtered by organic membranes and then analyzed by HPLC. 2.4: Testing Conditions for HPLC • Column: Symmetry Cis column (Waters; 250 mm*4.6 mm, 5 μm). • Mobile phase: 0.02% phosphoric acid:methanol=5:95 (v:v). • Wavelength: 235 nm. • Temperature of the Column: 25° C. • Injection volume: 10 μL. • Flow rate: 1 mL/min. 3: Results

[3] = Photostability testing under illumination of 4500 Lx of ingredient and 1% premix (HPLC); settings: 4500 Lx
Text: as §1
Photostability testing: The samples of an ingredient and 1% premix thereof were respectively spread in petri dishes to form thin layers of <5 mm, and kept under an illumination of 4500 Lx. Three replications for a sample were sampled in parallel on day 5 and day 10 for HPLC analysis.
as §2, §3

[4] = 1% Premix of an ingredient (corncob meal), Day 5
[5] = 1% Premix of an ingredient (corncob meal), Day 10

## CCC(=O)OC1=C(CCC(C)C)C(=O)C(CCC(C)C)(CCC(C)C)C(O)=C1C(=O)C(C)C [hexahydro-colupulone mono-propionate]
[1]; 100 ppm in INSIGHTER's broiler feed, Day 5
  Residual amount of active ingredient: 99.45%
[1]; 100 ppm in INSIGHTER's broiler feed, Day 15
  Residual amount of active ingredient: 99.37%
[1]; 100 ppm in INSIGHTER's broiler feed, Day 30
  Residual amount of active ingredient: 99.19%
[1]; 100 ppm in INSIGHTER's broiler feed, Day 60
  Residual amount of active ingredient: 99.72%
[1]; 100 ppm in creep feed for piglets from CP FEED, Day 5
  Residual amount of active ingredient: 100.54%
[1]; 100 ppm in creep feed for piglets from CP FEED, Day 15
  Residual amount of active ingredient: 100.97%
[1]; 100 ppm in creep feed for piglets from CP FEED, Day 30
  Residual amount of active ingredient: 97.62%
[1]; 100 ppm in creep feed for piglets from CP FEED, Day 60
  Residual amount of active ingredient: 98.08%
[1]; 100 ppm in creep feed for piglets from CP FEED, Day 90
  Residual amount of active ingredient: 96.99%
[1]; 500 ppm in ZUSF's premixed feed, Day 5
  Residual amount of active ingredient: 98.36%
[1]; 500 ppm in ZUSF's premixed feed, Day 15
  Residual amount of active ingredient: 96.77%
[1]; 500 ppm in ZUSF's premixed feed, Day 30
  Residual amount of active ingredient: 94.17%
[1]; 500 ppm in ZUSF's premixed feed, Day 60
  Residual amount of active ingredient: 95.88%
[1]; 500 ppm in ZUSF's premixed feed, Day 90
  Residual amount of active ingredient: 95.73%
[1]; 2000 ppm in 4% premixed feed from GUANGDONG CO-POWER, Day 5
  Residual amount of active ingredient: 97.48%
[1]; 2000 ppm in 4% premixed feed from GUANGDONG CO-POWER, Day 15
  Residual amount of active ingredient: 96.12%
[1]; 2000 ppm in 4% premixed feed from GUANGDONG CO-POWER, Day 30
  Residual amount of active ingredient: 96.28%
[1]; 2000 ppm in 4% premixed feed from GUANGDONG CO-POWER, Day 60
  Residual amount of active ingredient: 95.87%
[1]; 2000 ppm in 4% premixed feed from GUANGDONG CO-POWER, Day 90
  Residual amount of active ingredient: 95.90%
[2]; [4]
  Residual amount of active ingredient: 98.27%
[2]; [5]
  Residual amount of active ingredient: 97.91%
[2]; Ingredient, Day 5
  Residual amount of active ingredient: 99.40%
[2]; Ingredient, Day 10
  Residual amount of active ingredient: 99.26%
[3]; [4]
  Residual amount of active ingredient: 98.87%
[3]; [5]
  Residual amount of active ingredient: 98.10%
[3]; Ingredient, Day 5
  Residual amount of active ingredient: 98.90%
[3]; Ingredient, Day 10
  Residual amount of active ingredient: 98.70%

— patent US12673915B2, “Precursor compound of hexahydro-beta-acid component compound, feed composition and use thereof” (WISORIG TECHNOLOGIES PTE. LIMITED, priority 2020, dated 2026)
